The structures appear in SMILES notation.

The subject of experiment [1] is Z138 mantle cell lymphoma tumour cell lines. The experiment is described as follows: In vitro cytotoxicity, MTT assay. Type of experiment: cell-based. The following applies: Z138 cells exposed to the test compounds for 96 hours, cell viability vs DMSO treated cells. The procedure, abridged: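 Z138 cells exposed to compounds for 96 hours, then MTT added for 4 hours. Viable cells quantified from formazan absorbance at 540 nm.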
(In general: Tetrazolium assays rely on reduction of a dye to a coloured formazan, in cell work by metabolically active cells.)

Experiment [2] has as its target T1, His-His-USP7 (aa208-560, |C315A|) (Homo sapiens, UniProt Q93009, C315A).
T1 construct: His-His-USP7 (aa208-560, |C315A|); His-His (N)
Description: Evaluation of the inhibition of USP7 by the Fluorescence Intensity (FLINT) readings. Type of experiment: biochemical. The following applies: 0.25 nM His-His-USP7, compound incubated 60 minutes at 30° C., 500 nM Ubiquitin-Rhodamine-110 substrate; 50% reduction in kinetic rate. Put shortly: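 IC50 reflects 50% reduction in kinetic rate of rhodamine-110 release (Ex485/Em535, reads every 3 min over 21 min), normalised to DMSO and no-enzyme controls, from an 11-point 4-parameter fit. Substrate is 500 nM Ub-Rh110, added after 60 min, 30 °C preincubation of compound with 0.25 nM USP7 aa208–560 C315A. Buffer is Bicine pH 8.0 with 10% DMSO.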

T1 sequence (Q93009 208-560 C315A): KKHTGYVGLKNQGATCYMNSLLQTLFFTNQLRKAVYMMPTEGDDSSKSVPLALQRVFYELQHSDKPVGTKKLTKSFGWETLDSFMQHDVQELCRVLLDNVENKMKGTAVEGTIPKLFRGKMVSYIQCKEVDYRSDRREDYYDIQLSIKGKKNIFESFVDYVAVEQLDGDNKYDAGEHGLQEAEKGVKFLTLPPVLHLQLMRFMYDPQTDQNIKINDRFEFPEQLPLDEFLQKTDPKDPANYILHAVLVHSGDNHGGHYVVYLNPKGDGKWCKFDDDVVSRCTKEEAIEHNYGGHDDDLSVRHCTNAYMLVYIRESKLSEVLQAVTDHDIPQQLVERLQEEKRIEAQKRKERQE

For the molecule `Nc1c(Oc2ccc(F)cc2)ncn(CC2(O)CCN(C(=O)[C@@H]3CC[C@](F)(C#Cc4cnccn4)C[C@H]3c3ccccc3)CC2)c1=O` [Example 138, 5-amino-3-({1-[(1R,2R,4R)-4-fluoro-2-phenyl-4-[2-(pyrazin-2-yl)ethynyl]cyclohexanecarbonyl]-4-hydroxypiperidin-4-yl}methyl)-6-(4-fluorophenoxy)-3,4-dihydropyrimidin-4-one], the IC50 (in general, the midpoint of a concentration-inhibition curve) was 0.00657 µM in experiment [1] (Homo sapiens, Z-138, 96 h) and 20.3 nM in experiment [2].
On to `Nc1c(Oc2ccc(CNCc3ccccc3)cc2)ncn(CC2(O)CCN(C(=O)[C@@H]3CCC(F)(F)C[C@H]3c3ccccc3)CC2)c1=O` [Example 76, 5-amino-6-{4-[(benzylamino)methyl]phenoxy}-3-({1-[(1R,2R)-4,4-difluoro-2-phenylcyclohexane-1-carbonyl]-4-hydroxypiperidin-4-yl}methyl)pyrimidin-4(3H)-one], for which the IC50 in experiment [1] (Homo sapiens, Z-138, 96 h) was found to be 0.4 µM; in experiment [2], 15 nM.
The matching figures for `CC#CC1(F)CC[C@@H](C(=O)N2CCC(O)(Cn3cnc(Oc4ccc(F)cc4)c(N)c3=O)CC2)[C@H](c2ccccc2)C1` (relative stereo) [Example 125, rel-5-amino-3-[(1-{[(1R,2R)-4-fluoro-2-phenyl-4-(prop-1-yn-1-yl)cyclohexyl]carbonyl}-4-hydroxypiperidin-4-yl)methyl]-6-(4-fluorophenoxy)pyrimidin-4-one]: 0.0603 µM and 89.5 nM.
The matching figures for `Nc1c(Oc2ccc(F)cc2)ncn(CC2(O)CCN(C(=O)[C@@H]3CC[C@](O)(Cc4ccccc4)C[C@H]3c3ccccc3)CC2)c1=O` (relative stereo) [Example 94, rel-5-amino-3-({1-[(1R,2R,4R)-4-benzyl-4-hydroxy-2-phenyl-cyclohexanecarbonyl]-4-hydroxypiperidin-4-yl}methyl)-6-(4-fluorophenoxy)-3,4-dihydropyrimidin-4-one]: 0.0494 µM and 63.4 nM.
The matching figures for `CO[C@]1(C#Cc2cnc(C)nc2)CC[C@@H](C(=O)N2CC[C@](O)(Cn3cnc(Oc4ccc(F)cc4)c(N)c3=O)C(F)(F)C2)[C@H](c2ccccc2)C1` [Example 177, 5-amino-3-{[(4S)-3,3-difluoro-4-hydroxy-1-[(1R,2R,4R)-4-methoxy-4-[2-(2-methylpyrimidin-5-yl)ethynyl]-2-phenylcyclohexanecarbonyl]piperidin-4-yl]methyl}-6-(4-fluorophenoxy)-3,4-dihydropyrimidin-4-one]: 0.0218 µM and 33.3 nM.
Turning to `COc1cnnc(C#C[C@@]2(OC)CC[C@@H](C(=O)N3CC[C@](O)(Cn4cnc(Oc5ccc(F)cc5)c(N)c4=O)C(F)(F)C3)C(c3ccccc3)C2)c1` (stereo partly drawn) [Example 173, 5-amino-3-{[(4S)-3,3-difluoro-4-hydroxy-1-[(1R,4R)-4-methoxy-4-[2-(5-methoxypyridazin-3-yl)ethynyl]-2-phenylcyclohexanecarbonyl]piperidin-4-yl]methyl}-6-(4-fluorophenoxy)-3,4-dihydropyrimidin-4-one], the IC50 was found to be 0.00521 µM in experiment [1] (Homo sapiens, Z-138, 96 h) and 14.6 nM in experiment [2].
On to `CCc1cc(Oc2ncn(CC3(O)CCN(C(=O)[C@@H]4CCC(F)(F)C[C@H]4c4ccccc4)CC3)c(=O)c2N)ccc1Cl` [Example 42, 5-amino-6-(4-chloro-3-ethylphenoxy)-3-({1-[(1R,2R)-4,4-difluoro-2-phenylcyclohexane-1-carbonyl]-4-hydroxypiperidin-4-yl}methyl)pyrimidin-4(3H)-one], for which the concentration for half-maximal inhibition (IC50) in experiment [1] (Homo sapiens, Z-138, 96 h) was 0.169 µM; in experiment [2], 89.7 nM.
For `C#CC1(F)CC[C@@H](C(=O)N2CCC(O)(Cn3cnc(Oc4ccc(F)cc4)c(N)c3=O)CC2)[C@H](c2ccccc2)C1` (relative stereo) [Example 93, rel-5-amino-3-({1-[(1R,2R)-4-ethynyl-4-fluoro-2-phenyl-cyclohexanecarbonyl]-4-hydroxypiperidin-4-yl}methyI)-6-(4-fluorophenoxy)-3,4-dihydropyrimidin-4-one], the IC50 was found to be 0.0411 µM in experiment [1] (Homo sapiens, Z-138, 96 h) and 66.3 nM in experiment [2].
As for `Nc1c(Oc2ccc(F)cc2)ncn(CC2(O)CCN(C(=O)[C@@H]3CC[C@](F)(C#Cc4cccnc4)C[C@H]3c3ccccc3)CC2)c1=O` [Example 130, 5-amino-3-[(1-{[(1R,2R,4R)-4-fluoro-2-phenyl-4-[2-(pyridin-3-yl)ethynyl]cyclohexyl]carbonyl}-4-hydroxypiperidin-4-yl)methyl]-6-(4-fluorophenoxy)pyrimidin-4-one], the IC50 was 0.0144 µM in experiment [1] (Homo sapiens, Z-138, 96 h) and 17 nM in experiment [2].
The matching figures for `Cc1ccc(Oc2ncn(CC3(O)CCN(C(=O)[C@@H]4CCC(F)(F)C[C@H]4c4ccccc4)CC3)c(=O)c2N)cc1O` [Example 111, 5-amino-3-({1-[(1R,2R)-4,4-difluoro-2-phenylcyclohexane-1-carbonyl]-4-hydroxypiperidin-4-yl}methyl)-6-(3-hydroxy-4-methylphenoxy)pyrimidin-4(3H)-one]: 0.0588 µM and 22.1 nM.
As to `Nc1c(Oc2ccc(CCO)cc2)ncn(CC2(O)CCN(C(=O)[C@@H]3CCC(F)(F)C[C@H]3c3ccccc3)CC2)c1=O` [Example 36, 5-amino-3-({1-[(1R,2R)-4,4-difluoro-2-phenylcyclohexane-1-carbonyl]-4-hydroxypiperidin-4-}methyl)-6-[4-(2-hydroxyethyl)phenoxy]pyrimdin-4(3H)-one], the IC50 stood at 0.035 µM in experiment [1] (Homo sapiens, Z-138, 96 h) and 29 nM in experiment [2].
Consider `NCc1ccc(Oc2ncn(CC3(O)CCN(C(=O)[C@@H]4CCC(F)(F)C[C@H]4c4ccccc4)CC3)c(=O)c2N)cc1` [Example 59, 5-amino-6-[4-(aminomethyl)phenoxy]-3-({1-[(1R,2R)-4,4-difluoro-2-phenylcyclohexane-1-carbonyl]-4-hydroxypiperidin-4-yl}methyl)pyrimidin-4(3H)-one], for which the IC50 in experiment [1] (Homo sapiens, Z-138, 96 h) was found to be 0.064 µM; in experiment [2] it was 4.2 nM.
The matching figures for `CO[C@]1(C#Cc2ccccn2)CC[C@@H](C(=O)N2CC[C@](O)(Cn3cnc(Oc4ccc(F)cc4)c(N)c3=O)C(F)(F)C2)[C@H](c2ccccc2)C1` [Example 166, 5-amino-3-{[(4S)-3,3-difluoro-4-hydroxy-1-[(1R,2R,4R)-4-methoxy-2-phenyl-4-[2-(pyridin-2-yl)ethynyl]cyclohexanecarbonyl]piperidin-4-yl]methyl}-6-(4-fluorophenoxy)-3,4-dihydropyrimidin-4-one]: 0.00943 µM and 11.2 nM.
Regarding `Nc1cccc(C#C[C@@]2(F)CC[C@@H](C(=O)N3CCC(O)(Cn4cnc(Oc5ccc(F)cc5)c(N)c4=O)CC3)[C@H](c3ccccc3)C2)n1` [Example 161, 5-amino-3-[(1-{[(1R,2R,4R)-4-[2-(6-aminopyridin-2-yl)ethynyl]-4-fluoro-2-phenylcyclohexyl]carbonyl}-4-hydroxypiperidin-4-yl)methyl]-6-(4-fluurophenoxy)pyrimidin-4-one], the IC50 in experiment [1] came to 0.0126 µM; in experiment [2] it was 29.4 nM.
Take `CNc1c(Oc2ccccc2)ncn(CC2(O)CCN(C(=O)[C@@H]3CCC(F)(F)C[C@H]3c3ccccc3)CC2)c1=O` [Example 9, 3-({1-[(1R4R)-4,4-difluoro-2-phenylcyclohexane-1-carbonyl]-4-hydroxypiperidin-4-yl}methyl)-5-(methylamino)-6-phenoxypyrimidin-4(3H)-one]: the IC50 in experiment [1] (Homo sapiens, Z-138, 96 h) was found to be 0.287 µM; in experiment [2] it was 85.8 nM.
The matching figures for `CO[C@]1(C#Cc2cncnc2)CC[C@@H](C(=O)N2CCC(O)(Cn3cnc(Oc4ccc(F)cc4)c(N)c3=O)CC2)[C@H](c2ccccc2)C1` [Example 139, 5-amino-6-(4-fluorophenoxy)-3-[(4-hydroxy-1{[(1R, 2R,4R)-4-methoxy-2-phenyl-4-[2-(pyrimidin-5-yl)ethynyl]cyclohexyl]carbonyl}piperidin-4-yl)methyl]pyrimidin-4-one]: 0.0291 µM and 49.7 nM.
Take `NCc1ccc(Oc2ncn(CC3(O)CCN(C(=O)[C@@H]4CCC(F)(F)C[C@H]4c4ccccc4)CC3)c(=O)c2N)cc1Cl` [Example 66, 5-amino-6-[4-(aminomethyl)-3-chlorophenoxy]-3-({1-[(1R,2R)-4,4-difluoro-2-phenylcyclohexane-1-carbonyl]-4-hydroxypiperidin-4-yl}methyl)pyrimidin-4(3H)-one]: the IC50 in experiment [1] (Homo sapiens, Z-138, 96 h) was 0.301 µM; in experiment [2], 11 nM.
As for `Nc1c(Oc2ccccc2)ncn(CC2(O)CCN(C(=O)[C@@H]3CCC(F)(F)C[C@H]3n3cccc3)CC2)c1=O` [Example 83, 5-amino-3-({1-[(1R,2R)-4,4-difluoro-2-(1H-pyrrol-1-yl)cyclohexane-1-carbonyl]-4-hydroxypiperidin-4-yl}methyl)-6-phenoxypyrimidin-4(3H)-one], the IC50 in experiment [1] (Homo sapiens, Z-138, 96 h) is 0.327 µM; in experiment [2], 220 nM.
As to `Nc1c(Oc2ccc(CO)cc2)ncn(CC2(O)CCN(C(=O)[C@@H]3CCC(F)(F)C[C@H]3c3ccccc3)CC2)c1=O` [Example 23, 5-amino-3-({1-[(1R,2R)-4,4-difluoro-2-phenylcyclohexane-1-carbonyl]-4-hydroxypiperidin-4-yl}methyl)-6-[4-(hydroymethyl)phenoxy]pyrimidin-4(3H)-one], the IC50 is 0.22 µM in experiment [1] (Homo sapiens, Z-138, 96 h) and 40 nM in experiment [2].
The matching figures for `Nc1c(Oc2ccc3c(c2)OCO3)ncn(CC2(O)CCN(C(=O)[C@@H]3CCC(F)(F)C[C@H]3c3ccccc3)CC2)c1=O` [Example 14]: 0.0413 µM and 71.8 nM.

The values above are taken from patent publication US20210221785A1, “AMINO-PYRIMIDONYL DERIVATIVES, A PROCESS FOR THEIR PREPARATION AND PHARMACEUTICAL COMPOSITIONS CONTAINING THEM” (LES LABORATOIRES SERVIER, priority 2018, published 2021).
